Test results reported in US4578489A (priority 1982, dated 1986).

Experiments:
Type in all cases: cell-based
Enterobacter aerogenes = test: Minimum inhibitory concentration against bacteria, strain C; details: 24 hours at 30° C.; tested at 100 and 300 mg/liter
Protocol: (§1) Overnight cultures, grown in Caso peptone bouillon (Merck) of the various strains of bacteria: (A) Proteus vulgaris, (B) Pseudomonas aeruginosa, (C) Enterobacter aerogenes, (D) Serratia marcencens, (E) Alcaligenes denitrificans and (F) Bacillus subtilis are each diluted in a ratio of 1/1000 in saline solution. Sufficient of the suspensions is put into Caso peptone bouillon to dilute the bacteria again in the ratio of 1/1000. Each of the compounds listed in Table 1 is then added in amounts of 100 and 300 mg/liter. After being incubated for 24 hours at 30° C. in a shaking waterbath, the turbidity of the samples is evaluated.

Chaetomium globosum = test: Minimum inhibitory concentration against fungi, agar incorporation test, strain S; details: malt extract/agar
Protocol: (§2) The invention is carried out using the known agar incorporation test in the following fungi:
(§3) in a malt extract/agar (Merck). Inhibition is effected by adding sufficient of each of the various compounds to give final concentrations in the agar of 2, 5, 10, 50 and 100 mg/liter. The concentrations (mg/liters) required to inhibit the growth of the fungi (starting from traces of fungi added dropwise) are illustrated in Table 3.

Aspergillus phoenicis = test: Minimum inhibitory concentration against fungi, agar incorporation test, strain L; details: malt extract/agar
Protocol: as §2
(L) Aspergillus phoenicis
as §3

Aureobasidium pullulans = test: Minimum inhibitory concentration against fungi, agar incorporation test, strain R; details: malt extract/agar
Protocol: as §2
(R) Aureobasidium pullulans
as §3

Penicillium funiculosum = test: Minimum inhibitory concentration against fungi, agar incorporation test, strain M; details: malt extract/agar
Protocol: as §2
(M) Penicillium funiculosum
as §3

Alternaria alternata = test: Minimum inhibitory concentration against fungi, agar incorporation test, strain N; details: malt extract/agar
Protocol: as §2, §3

[1] = test system: Cladosporium cladosporioides; test: Minimum inhibitory concentration against fungi, agar incorporation test, strain O; details: malt extract/agar
Protocol: as §2
(O) Cladosporium cladosporioides
as §3

Aspergillus niger = test: Minimum inhibitory concentration against fungi, agar incorporation test, strain K; details: malt extract/agar
Protocol: as §2, §3

Bacillus subtilis = test: Minimum inhibitory concentration against bacteria, strain F; details: 24 hours at 30° C.; tested at 100 and 300 mg/liter
Protocol: as §1

Proteus vulgaris = test: Minimum inhibitory concentration against bacteria, strain A; details: 24 hours at 30° C.; tested at 100 and 300 mg/liter
Protocol: as §1

[2] = test system: Alcaligenes denitrificans; test: Minimum inhibitory concentration against bacteria, strain E; details: 24 hours at 30° C.; tested at 100 and 300 mg/liter
Protocol: as §1

Chlorella vulgaris = test: Action against algae: Chlorella vulgaris; design: key: --: no growth on the agar, 3 ppm have destroyed the algae in 6 hours; details: 3 mg/liter; for Growth on the agar (algae-destroying action): 6 hours exposure, 14 days incubation; for Growth in the medium (growth inhibition): 14 days
Protocol: Cultures of Chlorella vulgaris which had been grown for 14 days in algae nutrient media are diluted in the ratio 1/200 in the algae nutrient medium. Each of the compounds listed in Table 1 is then added in such an amount as to give a final concentration of 3 mg/liter. After incubating for 6 hours, 10 μl of each culture are withdrawn and added dropwise to algae/agar in order to determine the destructive action. After the cultures have incubated for 14 days under illumination (14 hours of light and 10 hours of darkness, alternately), the growth in the algae medium (determination of growth inhibition) and on the algae/agar (determination of algae-destroying action) is assessed visually.

Pseudomonas aeruginosa = test: Minimum inhibitory concentration against bacteria, strain B; details: 24 hours at 30° C.; tested at 100 and 300 mg/liter
Protocol: as §1

Endomyces geotrichum = test: Minimum inhibitory concentration against fungi, agar incorporation test, strain Q; details: malt extract/agar
Protocol: as §2, §3

Candida albicans = test: Minimum inhibitory concentration against fungi, agar incorporation test, strain P; details: malt extract/agar
Protocol: as §2, §3

Serratia marcencens = test: Minimum inhibitory concentration against bacteria, strain D; details: 24 hours at 30° C.; tested at 100 and 300 mg/liter
Protocol: as §1

| Compound | MIC against bacteria, strain C (Enterobacter aerogenes) | MIC against fungi, strain S (Chaetomium globosum) | MIC against fungi, strain L (Aspergillus phoenicis) | MIC against fungi, strain R (Aureobasidium pullulans) | MIC against fungi, strain M (Penicillium funiculosum) | MIC against fungi, strain N (Alternaria alternata) | MIC against fungi, strain O [1] | MIC against fungi, strain K (Aspergillus niger) | MIC against bacteria, strain F (Bacillus subtilis) | MIC against bacteria, strain A (Proteus vulgaris) | MIC against bacteria, strain E [2] | Growth on the agar (algae-destroying action) (Chlorella vulgaris) | Growth in the medium (growth inhibition) (Chlorella vulgaris) | MIC against bacteria, strain B (Pseudomonas aeruginosa) | MIC against fungi, strain Q (Endomyces geotrichum) | MIC against fungi, strain P (Candida albicans) | MIC against bacteria, strain D (Serratia marcencens) |
| --- | --- | --- | --- | --- | --- | --- | --- | --- | --- | --- | --- | --- | --- | --- | --- | --- | --- |
| CCCCCCCCCCCCC(=O)NCCC[N+](C)(C)CC(N)=O.CCC[CH2][Sn-]([Cl])([Cl])([CH2]CCC)[CH2]CCC [Example 30, (C12 H25 CO)NH(CH2) 3 N(CH3)2 (CH2 CONH2) / Tributyldichloro] | 100 mg/L | ≤ 5 mg/L | ≤ 5 mg/L | ≤ 5 mg/L | 10 mg/L | ≤ 5 mg/L | ≤ 5 mg/L | ≤ 5 mg/L | 100 mg/L | 100 mg/L | 100 mg/L | -- | -- | 100 mg/L | 10 mg/L | ≤ 5 mg/L | 100 mg/L |
| C14 H29 (CH3)2NCH2CHOHCH2 OH / Tributyldichloro [Example 21] | 100 mg/L | ≤ 5 mg/L | ≤ 5 mg/L | ≤ 5 mg/L | ≤ 5 mg/L | ≤ 5 mg/L | ≤ 5 mg/L | ≤ 5 mg/L | 100 mg/L | 100 mg/L | 100 mg/L | -- | -- | 100 mg/L | ≤ 5 mg/L | ≤ 5 mg/L | 100 mg/L |
| CCC[CH2][Sn-]([Cl])([Cl])([CH2]CCC)[CH2]CCC.CCC[CH2][Sn-]([Cl])([Cl])([CH2]CCC)[CH2]CCC.C[N+](C)(C)CCCCCC[N+](C)(C)C [Example 23, (CH3)3 N(CH2)6 N(CH3)3 / Tributyldichloro] | 300 mg/L | ≤ 5 mg/L | 10 mg/L | ≤ 5 mg/L | 10 mg/L | ≤ 5 mg/L | ≤ 5 mg/L | 10 mg/L | 100 mg/L | 100 mg/L | 300 mg/L | -- | -- | 100 mg/L | 10 mg/L | ≤ 5 mg/L | > 300 mg/L |
| CCCCCCCCCCCCC(=O)NCCC[N+](C)(C)O.CCC[CH2][Sn-]([Cl])([Cl])([CH2]CCC)[CH2]CCC [Example 29, (C12 H25 CO)NH(CH2)3 N(OH)(CH3)2 / Tributyldichloro] | > 300 mg/L | ≤ 5 mg/L | ≤ 5 mg/L | ≤ 5 mg/L | 10 mg/L | ≤ 5 mg/L | ≤ 5 mg/L | ≤ 5 mg/L | 100 mg/L | 100 mg/L | 300 mg/L | -- | -- | 100 mg/L | 10 mg/L | ≤ 5 mg/L | > 300 mg/L |
| CCCCCCCCCCCC[N+](C)(C)C.CCC[CH2][Sn-]([Cl])([Cl])([CH2]CCC)[CH2]CCC [Example 16, (CH3)3 NC12 H25 / Tributyldichloro] | 100 mg/L | 2 mg/L | 2 mg/L | 2 mg/L | 5 mg/L | 2 mg/L | 2 mg/L | 2 mg/L | 100 mg/L | 100 mg/L | 100 mg/L | -- | -- | 100 mg/L | 50 mg/L | 5 mg/L | 100 mg/L |
| CCCCCCCCCCCC[N+](C)(C)O.CCC[CH2][Sn-]([Cl])([Cl])([CH2]CCC)[CH2]CCC [Example 14, (CH3)2 N(OH)C12 H25 / Tributyldichloro] | > 300 mg/L | 2 mg/L | 2 mg/L | 2 mg/L | 5 mg/L | 2 mg/L | 2 mg/L | 2 mg/L | 100 mg/L | 100 mg/L | 300 mg/L | -- | -- | 100 mg/L | 10 mg/L | 5 mg/L | 300 mg/L |
| (CH3)2 N(OH)C16 H37 / Tributyldichloro [Example 15] | > 300 mg/L | 2 mg/L | 2 mg/L | 2 mg/L | 5 mg/L | 2 mg/L | 2 mg/L | 2 mg/L | 100 mg/L | 100 mg/L | 300 mg/L | -- | -- | 100 mg/L | 10 mg/L | 5 mg/L | > 300 mg/L |
